Literature values, collected in the PKSmart pharmacokinetics tables (Seal et al. 2025).
*1 amine or outer side, *2 acyl side, *3 side chain or, on linkers, in order; H or OH if unused. Where a SMILES comes first, the peptide text is derived from it. Bridges are numbered along the chain shown (N, C = ends). [ ]: non-standard residue; d: D form. The star is where a group is joined. ξ: configuration not given here. pTerphenylCO(4''-OnC5H11) = CCCCCOc1ccc(-c2ccc(-c3ccc(C(=O)*)cc3)cc2)cc1; ξOrn(4R-OH,5R-OH) = O=C(C(C[C@@H](O)[C@@H](O)N[*:3])N[*:1])[*:2]; ξhTyr(3S-OH,4S-OH) = NC(C(=O)O)[C@H](O)[C@@H](O)c1ccc(O)cc1; X4 = C[C@H]1CN([*:1])C(C(=O)[*:2])[C@H]1O; ξPro(4R-OH) = O=C(O)C1C[C@@H](O)CN1; ξThr(3R) = C[C@@H](O)C(N)C(=O)O

Assay: Lombardo, Berellini, Obach 2018, Drug Metab Dispos 46:1466, doi 10.1124/dmd.118.082966
Details: human; for MRT / Vd / clearance / half-life: in vivo, iv; for fraction unbound: plasma

| SMILES | MRT | Vd | clearance | half-life | fraction unbound |
| --- | --- | --- | --- | --- | --- |
| O=S(=O)(O)CCS | 0.52 h | 0.65 L/kg | 20.5 mL/min/kg | 0.36 h |  |
| Nc1ccn([C@@H]2CO[C@H](CO)S2)c(=O)n1 | 3.6 h | 0.84 L/kg | 3.9 mL/min/kg | 8.92 h |  |
| OCCN1C[C@H](O)[C@@H](O)[C@H](O)[C@H]1CO | 2.7 h | 0.28 L/kg | 1.7 mL/min/kg | 2.3 h |  |
| O=C(O)CO | 2.75 h | 0.67 L/kg | 4.05 mL/min/kg | 2.1 h | 0.84 |
| CC(=O)NC[C@H]1CN(c2ccc(N3CCOCC3)c(F)c2)C(=O)O1 | 5.4 h | 0.58 L/kg | 1.8 mL/min/kg | 4.5 h |  |
| Cc1cccc(C)c1NC(=O)C1CCCCN1C (stereo unspecified) | 2.5 h | 0.95 L/kg | 6.8 mL/min/kg | 2 h | 0.3 |
| Cc1cc(OC[C@H](O)CNC(C)C)c(C)c(C)c1O | 3.7 h | 3.6 L/kg | 16.2 mL/min/kg | 3.1 h |  |
| Cc1cccc(N2CC(CO)OC2=O)c1 (stereo unspecified) | 2.3 h | 1.5 L/kg | 11 mL/min/kg | 1.6 h | 0.49 |
| CN1CCN(CCCCN2C(=O)CN(/N=C/c3ccc(-c4ccc(Cl)cc4)o3)C2=O)CC1 | 100 h | 13 L/kg | 2.4 mL/min/kg | 79 h | 0.06 |
| COc1c(N2CCC/C(=C(\F)CN)C2)c(F)cc2c(=O)c(C(=O)O)cn(C3CC3)c12 | 24.2 h | 1.13 L/kg | 0.78 mL/min/kg | 19.6 h | 0.34 |
| CCN(C)C(=O)Oc1cccc([C@H](C)N(C)C)c1 | 1.9 h | 1.3 L/kg | 12 mL/min/kg | 1.4 h | 0.6 |
| Cc1cc2c(OCC(O)CNC(C)C)cccc2[nH]1 (stereo unspecified) | 6.21 h | 2.17 L/kg | 5.83 mL/min/kg | 4.61 h | 0.51 |
| COC[C@@H](O)CN(C(C)=O)c1c(I)c(C(=O)NC[C@H](O)CO)c(I)c(C(=O)NC[C@H](O)CO)c1I | 2.64 h | 0.2 L/kg | 1.27 mL/min/kg | 2.04 h | 1 |
| C#Cc1cccc(Nc2ncnc3cc(OC)c(OCCCCCCC(O)=NO)cc23)c1 | 0.78 h | 0.56 L/kg | 12 mL/min/kg | 5.01 h |  |
| Nc1c2c(nc3ccccc13)CCCC2 | 3.3 h | 11 L/kg | 56 mL/min/kg | 3.3 h | 0.25 |
| CNC(=O)c1cnn(-c2nc(N)c3ncn([C@@H]4O[C@H](CO)[C@@H](O)[C@H]4O)c3n2)c1 | 2.1 h | 0.94 L/kg | 7.3 mL/min/kg | 2 h | 0.7 |
| COc1c(N2C[C@@H](C)C[C@H](N)C2)ccc2c(=O)c(C(=O)O)cn(C3CC3)c12 | 8.4 h | 1.9 L/kg | 3.8 mL/min/kg | 13.5 h |  |
| COc1ccc(C2(C#N)CCC(C(=O)O)CC2)cc1OC1CCCC1 (stereo unspecified) | 8.5 h | 0.23 L/kg | 0.5 mL/min/kg | 7.9 h |  |

| SMILES | MRT | Vd | clearance | half-life | fraction unbound |
| --- | --- | --- | --- | --- | --- |
| CC1C(=O)O[C@H]2C[C@@]34[C@H]5C[C@@H](C(C)(C)C)C36C(O)C(=O)O[C@H]6OC4(C(=O)O5)[C@@]12O (stereo partly specified) | 4.6 h | 0.62 L/kg | 2.3 mL/min/kg | 3.8 h |  |
| Nc1ccn([C@H]2CO[C@@H](CO)S2)c(=O)n1 | 6.5 h | 1.18 L/kg | 3 mL/min/kg | 19.2 h |  |
| CCCCCc1cc(O)c2c(c1)OC(C)(C)[C@@H]1CCC(C(=O)O)=C[C@@H]21 | 18.1 h | 1.28 L/kg | 1.2 mL/min/kg | 17.6 h |  |
| CCOC(=O)C(CCc1ccccc1)NC(C)C(=O)N1Cc2cc(OC)c(OC)cc2CC1C(=O)O (stereo unspecified) |  |  | 6.3 mL/min/kg | 1.3 h | 0.12 |
| N#C[C@@H](O[C@@H]1O[C@H](CO[C@@H]2O[C@H](CO)[C@@H](O)[C@H](O)[C@H]2O)[C@@H](O)[C@H](O)[C@H]1O)c1ccccc1 | 1.83 h | 0.21 L/kg | 1.88 mL/min/kg | 1.23 h |  |
| CN(C)C(=O)Oc1cc(OC(=O)N(C)C)cc(C(O)CNC(C)(C)C)c1 (stereo unspecified) | 1.4 h | 1.6 L/kg | 18 mL/min/kg | 2.6 h |  |
| N=C(N)NC(=O)Cc1c(Cl)cccc1Cl | 22 h | 5.6 L/kg | 4.5 mL/min/kg | 15 h |  |
| C=CCN1CCCC1CNC(=O)c1cc2[nH]nnc2cc1OC (stereo unspecified) | 4 h | 1.6 L/kg | 6.6 mL/min/kg | 2.8 h |  |
| Cc1cc(O)c2c(=O)c3c(O)cc(O)c4c5c(O)cc(O)c6c(=O)c7c(O)cc(CO)c8c1c2c(c34)c(c65)c78 | 15 h | 0.56 L/kg | 0.62 mL/min/kg | 20 h |  |
| CC[C@H](C)[C@@H]([C@@H](CC(=O)N1CCC[C@H]1[C@H](OC)C(C)C(=O)NCCc1ccccc1)OC)N(C)C(=O)C(NC(=O)C(C(C)C)N(C)C)C(C)C (stereo partly specified) | 4.6 h | 0.42 L/kg | 1.6 mL/min/kg | 5.67 h |  |
| O=P1(NCCCl)OCCCN1CCCl (stereo unspecified) | 9.4 h | 0.62 L/kg | 1.1 mL/min/kg | 6.6 h |  |
| Clc1cccc(N2CCNCC2)c1 | 7 h | 2.5 L/kg | 6.1 mL/min/kg | 4.7 h |  |
| CCCCCOc1ccc(-c2ccc(-c3ccc(C(=O)NC4C[C@@H](O)[C@@H](O)NC(=O)C5[C@@H](O)[C@@H](C)CN5C(=O)C([C@@H](C)O)NC(=O)C([C@H](O)[C@@H](O)c5ccc(O)cc5)NC(=O)C5C[C@@H](O)CN5C(=O)C([C@@H](C)O)NC4=O)cc3)cc2)cc1 (stereo partly drawn) ({pTerphenylCO(4''-OnC5H11)}-[ξOrn(4R-OH,5R-OH)][ξThr(3R)][ξPro(4R-OH)][ξhTyr(3S-OH,4S-OH)][ξThr(3R)][X4]; lactam 1-C) | 45 h | 0.57 L/kg | 0.21 mL/min/kg | 40 h |  |
| COc1cc(N)cn[n+]1-c1ccccc1 | 13 h | 4 L/kg | 5.1 mL/min/kg | 14.1 h |  |
| NCCCC(O)(P(=O)(O)O)P(=O)(O)O | 2.1 h |  |  |  |  |
| O=c1ccc2ccccc2o1 | 0.78 h | 1.1 L/kg | 23.6 mL/min/kg | 0.8 h | 0.17 |
| CN1[C@@H]2CC[C@H]1C[C@@H](OC(=O)c1c[nH]c3ccccc13)C2 | 6.3 h | 9.7 L/kg | 26 mL/min/kg | 5.6 h |  |
| CC1=NS(=O)(=O)c2cc(Cl)ccc2N1 | 58 h | 0.21 L/kg | 0.06 mL/min/kg | 48 h |  |
